Columns and labels:
Format in all cases: cell-based
[1] = test system: Mouse melanocytes (Melan-a); assay: Melanin content with rapamycin (autophagy inducer) or bafilomycin (autophagy inhibitor); conditions: bafilomycin (autophagy inhibitor) treatment, FIG. 8
Method: Mouse melanocytes (Melan-a) were inoculated into a 24-well plate at 1×10^5 cells/mL and cultured overnight. Thereafter, the medium was replaced with a new medium containing 100 μM IBMX (melanogenesis promoter) and 10 μg/mL and 100 μg/mL of the Nypa fruticans extract of the present disclosure, and reacted for 72 hours. Thereafter, the cells were treated with rapamycin (autophagy inducer) or bafilomycin (autophagy inhibitor), and the melanin content was evaluated.

[2] = test system: Mouse melanocytes (Melan-a); assay: Melanin content analysis in IBMX-treated melanocytes; conditions: 72 hours, FIG. 2
Method: (§1) Mouse melanocytes (Melan-a) were inoculated into a 24-well plate at 1×10^5 cells/mL and cultured overnight. Thereafter, the medium was replaced with a new medium containing 100 μM IBMX (melanogenesis promoter) and 10 μg/mL and 100 μg/mL of the Nypa fruticans extract of the present disclosure, and reacted for 72 hours, and the existing medium was washed. Thereafter, the cells were washed twice with PBS and dissolved in 1 N NaOH.
The melanin content was analyzed at 405 nm with a spectrophotometer, and arbutin was used as a positive control group.

[3] = test system: melanogenesis-related genes (TYR, TYRP-1, TYRP-2, MITF, MC1R) in mouse melanocytes (Melan-a); assay: Melanogenesis inhibitory effect (RT-PCR), melanogenesis-related mRNA expression; conditions: IBMX treatment alone, FIG. 3
Method: as §1
In melanogenesis, tyrosinase (TYR), tyrosinase-related protein-1 (TYRP-1) and tyrosinase-related protein-2 (TYRP-2) were key factors. […] In the experiment, phosphorylated CREB was evaluated as a transcription factor and melanogenesis-related genes such as tyrosinase, TYRP-1, TYRP-2, MITF, and MC1R in mouse melanocytes (Melan-a) to confirm a melanogenesis inhibitory effect.
Total RNA (2 μg) was extracted from the mouse melanocytes (Melan-a) using TRIzol (Invitrogen Co., Carlsbad, CA, USA). […] Quantification of bands was calculated using Image Lab™ software version 5.2.1 (Bio-Rad Laboratories, CA, USA).

[4] = test system: melanogenesis-related proteins (TYR, TYRP-2, MITF) in mouse melanocytes (Melan-a); assay: Melanogenesis inhibitory effect (Western blot), melanogenesis-related protein expression; conditions: IBMX treatment alone, FIG. 4
Method: as §1
Mouse melanocytes (Melan-a) were lysed with a RIPA buffer (ELPIS Biotech. Inc., Korea) containing protease inhibitor cocktail I (P8340; Sigma-Aldrich Korea) and phosphatase inhibitor cocktail II (P5726; Sigma-Aldrich Korea) and the extracted proteins were quantified using a Bradford protein method. Each protein was separated by 10% SDS-PAGE, and then transferred to a nitrocellulose (NC) membrane (0.45 μm; 1620115; Bio-Rad, Munich, Germany) and blocked with 5% skim milk or BSA in TBST for 1 hour. The membrane was cultured overnight with primary antibodies at 4° C. The membrane was washed four times at 15-minute intervals, and then reacted with anti-mouse or rabbit IgG-HRP as a secondary antibody. The proteins were detected using the ECL Solution System (ChemiDoc™ XRS+; Bio-Rad), and protein bands were quantified using Image Lab™ software (Bio-Rad Laboratories, CA, USA).

Q: With CO/C1=C\C(C)=C\[C@@H](C)[C@@H](O)[C@@H](C)C/C(C)=C/C=C/[C@H](OC)[C@@H]([C@@H](C)[C@@H](O)[C@H](C)[C@@]2(O)C[C@@H](O)[C@H](C)[C@@H](C(C)C)O2)OC1=O [bafilomycin] as the compound, how does the “effect on melanin content” value [1] read?
A: did not affect

Q: OC[C@H]1O[C@@H](Oc2ccc(O)cc2)[C@H](O)[C@@H](O)[C@@H]1O [arbutin] was tested. Which “melanin content reduction effect” value ([2]; IBMX-treated Melan-a, extract 100 μg/mL, arbutin positive control) did it give?
A: melanin content reduction effect

Q: Which results are given for CC(C)Cn1c(=O)n(C)c(=O)c2[nH]cnc21 [IBMX]?
A: increase of melanin content compared to IBMX-untreated control group ([2]; 100 μM IBMX, absorbance 405 nm): about 1.5 times; melanogenesis-related mRNA expression [3]: increased; melanogenesis-related protein levels [4]: increased

— patent publication US20240156717A1, “COMPOSITION FOR ENHANCING SKIN WHITENING EFFECT ACCORDING TO AUTOPHAGY ACTIVITY WITH NYPA FRUTICANS EXTRACT AS AN ACTIVE INGREDIENT” (KYUNGPOOK NATIONAL UNIVERSITY INDUSTRY - ACADEMIC …, priority 2022, published 2024)
